One may read the EC50 as the midpoint of the concentration-response curve. Read a high EC50 as weaker potency.

The target in this experiment is T1, Nuclear factor erythroid 2-related factor 2 (Homo sapiens, UniProt Q16236).
T1 sequence (Q16236 whole entry): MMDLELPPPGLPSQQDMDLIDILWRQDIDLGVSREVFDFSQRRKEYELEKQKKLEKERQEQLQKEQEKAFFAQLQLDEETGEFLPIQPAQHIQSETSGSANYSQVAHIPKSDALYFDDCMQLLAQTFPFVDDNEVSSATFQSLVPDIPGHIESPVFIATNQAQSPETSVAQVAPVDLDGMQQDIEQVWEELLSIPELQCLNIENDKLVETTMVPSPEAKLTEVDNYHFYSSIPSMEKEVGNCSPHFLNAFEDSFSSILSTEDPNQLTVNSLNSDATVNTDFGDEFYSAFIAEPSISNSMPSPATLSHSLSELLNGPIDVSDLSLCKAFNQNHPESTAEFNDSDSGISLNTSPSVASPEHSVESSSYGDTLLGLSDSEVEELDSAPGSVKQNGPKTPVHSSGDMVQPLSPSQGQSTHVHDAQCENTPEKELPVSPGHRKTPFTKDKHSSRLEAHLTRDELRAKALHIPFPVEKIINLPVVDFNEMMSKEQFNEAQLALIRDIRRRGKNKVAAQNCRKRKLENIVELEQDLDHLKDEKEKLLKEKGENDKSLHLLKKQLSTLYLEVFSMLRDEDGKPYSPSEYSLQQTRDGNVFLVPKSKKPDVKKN
Briefly: Activation of Nrf2 (unknown origin) expressed in human HepG2 cells after 5 hrs by ARE-driven luciferase reporter gene assay. (In general: In a reporter assay the amount or activity of a reporter protein is the signal.)
`Cc1ccc(/C=C/c2ccc(F)cc2)cc1` showed an EC50 of 1.3 µM.

Molecule `Fc1ccccc1/C=C/c1c(F)cccc1F` gave an EC50 of 1.4 µM.

The molecule `Fc1ccc(/C=C/c2cccc(F)c2)cc1` yielded an EC50 of 0.65 µM.

In turn, `O=[N+]([O-])c1cccc(/C=C/c2ccccc2)c1` yielded an EC50 of 3 µM. Against the preceding molecule, the EC50 is about 4.6-fold higher.

Consider `Cc1ccc(/C=C/c2ccc(F)cc2F)cc1`, for which the EC50 amounted to 2 µM.

As to `COc1ccc(/C=C/c2ccc(F)cc2)cc1`, the EC50 worked out at 4.2 µM.

`COc1ccc(/C=C/c2ccc(F)c(F)c2)cc1` gave an EC50 of over 15 µM.

Molecule `COc1ccccc1/C=C/c1ccccc1F` showed an EC50 of 3.1 µM.

`COc1ccc(/C=C/c2cccc([N+](=O)[O-])c2)cc1` displayed an EC50 of 3.3 µM.

Molecule `COc1cccc(/C=C/c2ccc(C(C)C)cc2)c1OC` yielded an EC50 of 2.7 µM.

On to `COc1cccc(/C=C/c2ccc(C(F)(F)F)cc2)c1OC`, for which the EC50 is 2.2 µM. The EC50 values of the last two molecules are within 1.5-fold of each other.

In the case of `Fc1ccccc1/C=C/c1ccc(Cl)cc1`, the EC50 amounted to 1.6 µM.

`COc1ccc(/C=C/c2cccc(F)c2)cc1OC` [4-(3-fluorostyryl)-1,2-dimethoxybenzene] yielded an EC50 of 9.5 µM.

As to `Fc1ccc(/C=C/c2ccccc2F)cc1F`, the concentration giving a half-maximal response (EC50) is over 15 µM.

The molecule `COc1ccc(/C=C/c2cccc(O)c2)cc1` returned a half-maximal effective concentration (EC50) of over 15 µM.

`COc1ccc(OC)c(/C=C/c2ccc(F)cc2)c1` showed an EC50 of 5.1 µM.

As for `COc1cccc(/C=C/c2cccc(F)c2)c1`, a half-maximal effect (EC50) was put at 2.3 µM. This EC50 lies about 2.2-fold lower than the previous one.

With `COc1ccc(/C=C/c2ccc(OC)cc2OC)cc1` [(E)2'',4,4''-Trimethoxystilbene], the response was half-maximal at 4.6 µM (EC50).

Regarding `COc1cccc(/C=C/c2ccc(C)cc2)c1OC`, the EC50 stood at 1.1 µM.

`COc1ccc(/C=C/c2ccccc2F)cc1` [US8980954, 6p] yielded an EC50 of 5.4 µM.

Consider `Fc1cccc(/C=C/c2ccc(F)cc2F)c1`, for which the EC50 was 0.45 µM.

The molecule `Cc1ccc(/C=C/c2cccc(F)c2)cc1` had an EC50 of 0.8 µM.

Turning to `Fc1ccccc1/C=C/c1ccccc1`, the EC50 was determined as 0.7 µM.

In turn, `COc1cccc(/C=C/c2ccc(F)cc2)c1` registered an EC50 of 6 µM.

Turning to `COc1ccc(/C=C/c2ccc(O)c(OC)c2)cc1`, the EC50 came to 3.7 µM.

`COc1ccc(/C=C/c2cccc(F)c2)cc1` [US8980954, 6n] came in with a concentration for a half-maximal effect (EC50) of 8.9 µM.

Regarding `Fc1ccc(F)c(/C=C/c2ccccc2F)c1`, the EC50 is 5.9 µM.

In turn, `Fc1cccc(/C=C/c2ccccc2)c1` had an EC50 of 3.1 µM.

The molecule `COc1ccc(/C=C/c2ccccc2Cl)cc1` [US8980954, 6j] returned an EC50 of 3.1 µM.

The molecule `Oc1ccc(/C=C/c2ccccc2F)cc1` returned an EC50 of 11.4 µM.

`COc1cccc(/C=C/c2cc(OC)ccc2OC)c1` had an EC50 of over 15 µM.

In the case of `COc1ccc(/C=C/c2cc(F)ccc2F)cc1`, the EC50 is 3.2 µM.

Molecule `Fc1ccc(/C=C/c2ccccc2)cc1` gave an EC50 of 12.4 µM.

For the molecule `Cc1ccc(/C=C/c2ccc(F)c(F)c2)cc1`, the EC50 came to 2.6 µM.

As for `Fc1cccc(/C=C/c2cc(F)ccc2F)c1`, the half-maximal effective concentration (EC50) is 0.3 µM.

The molecule `Fc1ccccc1/C=C/c1ccccc1F` displayed an EC50 of 4.3 µM.

In turn, `COc1ccc(OC)c(/C=C/c2ccc(OC)cc2OC)c1` displayed an EC50 of 0.8 µM.

For the molecule `COc1cccc(/C=C/c2ccccc2OC)c1`, the half-maximal effective concentration (EC50) turned out to be 4.4 µM. Against the preceding molecule, the EC50 is about 5.5-fold higher.

As for `COc1cccc(/C=C/c2cccc(F)c2)c1OC`, the response was half-maximal at 1.9 µM (EC50).

`Fc1cccc(F)c1/C=C/c1ccccc1`: a half-maximal response (EC50) required 6.9 µM.

As to `Fc1cccc(/C=C/c2cccc(F)c2)c1`, a half-maximal effect (EC50) was put at 1 µM.

In turn, `Fc1ccc(/C=C/c2ccc(F)c(F)c2)cc1` registered an EC50 of over 15 µM.

Take `Cc1ccc(/C=C/c2cccc(C(F)(F)F)c2)cc1`: the EC50 is 1.5 µM.

As for `Fc1ccc(/C=C/c2ccc(F)cc2F)cc1`, the EC50 was determined as 0.9 µM.

Molecule `COc1cccc(/C=C/c2ccc(F)cc2)c1OC` came in with an EC50 of 2.9 µM. This EC50 is about 3.2-fold higher than that of the molecule before.

In turn, `Oc1ccc(/C=C/c2cc(O)cc(O)c2)cc1` [5-[(E)-2-(4-hydroxyphenyl)ethenyl]benzene-1,3-diol] displayed an EC50 of 5.4 µM. This EC50 lies about 1.9-fold higher than the previous one.

Regarding `Cc1ccc(/C=C/c2ccccc2F)cc1`, the response was half-maximal at 1.4 µM (EC50).

As for `Fc1ccc(/C=C/c2ccccc2F)c(F)c1`, the EC50 worked out at 9.6 µM.

The molecule `COc1cccc(/C=C/c2ccccc2F)c1` registered an EC50 of 3.8 µM.

`Cc1ccc(/C=C/c2cccc([N+](=O)[O-])c2)cc1` yielded an EC50 of 3.7 µM.

The molecule `Fc1cccc(/C=C/c2ccccc2F)c1` showed an EC50 of over 15 µM.

`COc1ccc(/C=C/c2ccc(F)cc2)cc1OC` had an EC50 of 2.6 µM. This counts as single-digit micromolar.

Consider `COc1cccc(/C=C/c2ccccc2)c1OC`, for which the EC50 amounted to 4.7 µM.

`Fc1ccc(/C=C/c2cc(F)ccc2F)cc1` returned a half-maximal effective concentration (EC50) of 2.9 µM.

The molecule `Fc1cccc(/C=C/c2ccc(F)c(F)c2)c1` returned an EC50 of 5 µM.

Turning to `Fc1ccc(/C=C/c2ccccc2F)cc1`, the EC50 amounted to 3.6 µM.

Turning to `COc1ccccc1/C=C/c1ccccc1`, it took 4.4 µM to reach a half-maximal effect (EC50).

Source of the values: BindingDB's records for doi:10.1016/j.bmc.2017.01.005 (University of New Mexico, 2017).
